Usually IC50 stands for the concentration needed to halve the response being measured.

T1 sequence (Q96P20 whole entry): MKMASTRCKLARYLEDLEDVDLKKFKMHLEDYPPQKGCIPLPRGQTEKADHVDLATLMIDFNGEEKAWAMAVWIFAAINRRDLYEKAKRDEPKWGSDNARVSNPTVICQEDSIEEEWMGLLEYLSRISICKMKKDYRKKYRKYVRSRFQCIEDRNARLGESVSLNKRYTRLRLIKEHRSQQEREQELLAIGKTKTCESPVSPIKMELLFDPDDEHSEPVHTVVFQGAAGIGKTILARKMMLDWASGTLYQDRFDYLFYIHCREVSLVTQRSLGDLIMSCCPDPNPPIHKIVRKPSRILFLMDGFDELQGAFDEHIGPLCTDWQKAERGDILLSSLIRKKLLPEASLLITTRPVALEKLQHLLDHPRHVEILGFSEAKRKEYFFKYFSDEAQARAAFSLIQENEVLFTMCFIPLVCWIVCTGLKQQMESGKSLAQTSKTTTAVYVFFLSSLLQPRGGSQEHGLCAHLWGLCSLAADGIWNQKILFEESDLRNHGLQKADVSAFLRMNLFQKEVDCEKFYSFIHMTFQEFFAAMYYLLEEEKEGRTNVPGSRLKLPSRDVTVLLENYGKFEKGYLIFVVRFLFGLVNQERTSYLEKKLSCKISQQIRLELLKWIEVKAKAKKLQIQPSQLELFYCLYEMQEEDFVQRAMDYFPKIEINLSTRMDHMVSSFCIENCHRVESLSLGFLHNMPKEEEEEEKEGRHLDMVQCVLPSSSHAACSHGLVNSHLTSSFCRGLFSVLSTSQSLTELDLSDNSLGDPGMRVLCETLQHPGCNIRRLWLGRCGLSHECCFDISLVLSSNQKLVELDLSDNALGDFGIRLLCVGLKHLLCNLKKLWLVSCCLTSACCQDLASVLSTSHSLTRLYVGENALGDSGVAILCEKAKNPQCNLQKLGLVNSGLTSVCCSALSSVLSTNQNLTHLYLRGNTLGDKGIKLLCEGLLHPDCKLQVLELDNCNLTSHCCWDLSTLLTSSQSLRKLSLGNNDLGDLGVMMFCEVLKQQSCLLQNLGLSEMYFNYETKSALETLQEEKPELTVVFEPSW

One assay concerns the target T1, NLRP3 inflammasome (Homo sapiens, UniProt Q96P20).
T1 construct: host or cells: THP-1 cells
In words: Inhibitory activity of NLRP3 inflammasome in human monocytes (THP-1 cells, LPS + Nigericin, IL-1β ELISA). It counts as cell-based.
Conditions: not given
The protocol:
1. Determination of inhibitory activity of NLRP3 inflammasome in human monocytes
Experimental method: THP-1 cells were cultured in RPMI culture medium containing PMA (10 µM), and then inoculated in 48-well plates at a density of 2×10^5 cells/mL, the plates were incubated overnight in a 5% CO2 incubator at 37°C. The next day, the above culture medium was replaced with Opti-MEM culture medium containing 1 µg/mL LPS. After 3 hours, the grown cells were simulated for 40 min with a drug, and then simulated for 40 min with Nigericin (10 µM), and a cell supernatant was harvested for ELISA analysis.
Table 2 Inhibitory activity of NLRP3 inflammasome
In general terms: ELISA stands for enzyme-linked immunosorbent assay.
With `CN1CCC[C@@H](Nc2nnc(-c3ccc(-c4ccc(F)cc4)cc3O)n(C)c2=O)C1` [Compound 46, (R)-3-(4'-fluoro-3-hydroxy-[1,1'-biphenyl]-4-yl)-4-methyl-6-((1-methylpiperidin-3-yl)amino)-1,2,4-triazin-5(4H)-ketone], the IC50 stood at 25.5 nM.

Staying with this assay, now noted: THP-1 cells, PMA, LPS 1 µg/mL 3 h, drug 40 min, Nigericin 10 µM 40 min, IL-1β ELISA; read-out: IC50.
As for `[2H]C([2H])([2H])N1CCC[C@@H](Nc2nnc(-c3ccc4sccc4c3O)n(C)c2=O)C1` [Compound 10, (R)-3-(4-hydroxybenzo[b]thiophen-5-yl)-4-methyl-6-((1-(methyl-d3)piperidin-3-yl)amino)-1,2,4-triazin-5(4H)-ketone], the IC50 is 3.9 nM.

With `CC#Cc1ccc(-c2nnc(N[C@@H]3CCCN(CCO)C3)c(=O)n2C)c(O)c1` [Compound 29, (R)-6-((1-(2-hydroxyethyl)piperidin-3-yl)amino)-3-(2-hydroxy-4-(prop-1-yn-1-yl)phenyl)-4-methyl-1,2,4-triazin-5(4H)-ketone], the 50% inhibitory concentration (IC50) stood at 46.5 nM.

Regarding `CC#Cc1ccc(-c2nnc(N[C@@H]3CCCN(C)C3)c(=O)n2C)c(O)c1` [Compound 27, (R)-3-(2-hydroxy-4-(prop-1-yn-1-yl)phenyl)-4-methyl-6-((1-methylpiperidin-3-yl)amino)-1,2,4-triazin-5(4H)-ketone], the IC50 was determined as 14.3 nM.

As to `CN1CCCC2CCN(c3nnc(-c4ccc5sccc5c4O)n(C)c3=O)C21` (stereo not drawn) [Compound 48, 3-(4-hydroxybenzo[b]thiophen-5-yl)-4-methyl-6-(7-methyloctahydro-1H-pyrrolo[2,3-b]pyridin-1-yl)-1,2,4-triazin-5(4H)-ketone], the IC50 came to 18.5 nM.

`C#Cc1ccc(-c2nnc(N[C@@H]3CCCN(CCO)C3)c(=O)n2C)c(O)c1` [Compound 26, (R)-3-(4-ethynyl-2-hydroxyphenyl)-6-((1-(2-hydroxyethyl)piperidin-3-yl)amino)-4-methyl-1,2,4-triazin-5(4H)-ketone]: the concentration for half-maximal inhibition (IC50) was determined as 25.1 nM.

In the case of `C#Cc1ccc(-c2nnc(N[C@@H]3CCCN(CC)C3)c(=O)n2C)c(O)c1` [Compound 25, (R)-6-((1-ethylpiperidin-3-yl)amino)-3-(4-ethynyl-2-hydroxyphenyl)-4-methyl-1,2,4-triazin-5 (4H)-ketone], the IC50 stood at 6.7 nM.

The same assay, now with this note: read-out: IC50.
As to `Cn1c(-c2ccc3c(c2O)CCC3=C(F)F)nnc(N[C@@H]2CCCN(CCO)C2)c1=O` [Compound 1, (R)-3-(1-(difluoromethylene)-4-hydroxy-2,3-dihydro-1H-inden-5-yl)-6-((1-(2-hydroxyethyl)piperidin-3-yl)amino)-4-methyl-1,2,4-triazin-5(4H)-ketone], the IC50 was determined as 4.24 nM.

Regarding `CN1C[C@H](Nc2nnc(-c3ccc4sccc4c3O)n(C)c2=O)CC(F)(F)C1` [Compound 37, (R)-6-((5,5-difluoro-1-methylpiperidin-3-yl)amino)-3-(4-hydroxybenzb[b]thiophen-5-yl)-4-m ethyl-1,2,4-triazin-5(4H)-ketone], the half-maximal inhibitory concentration (IC50) came to 15.1 nM.

As for `CN1CCC[C@@H](Nc2nnc(-c3ccc(-c4ncccn4)cc3O)n(C)c2=O)C1` [Compound 47, (R)-3-(2-hydroxy-4-(pyrimidin-2-yl)phenyl)-4-methyl-6-((1-methylpiperidin-3-yl)amino)-1,2,4-triazin-5(4H)-ketone], the IC50 worked out at 450 nM.

Turning to `CN1CCC[C@@H](Nc2nnc(-c3ccc4sccc4c3OC(F)F)n(C)c2=O)C1` [Compound 38, (R)-3-(4-(difluoromethoxy)benzo[b]thiophen-5-yl)-4-methyl-6-((1-methylpiperidin-3-yl)amino)-1,2,4-triazin-5(4H)-ketone], the IC50 was 257 nM.

For the compound `CCN1CCC[C@@H](Nc2nnc(-c3ccc(C#CC4CC4)cc3O)n(C)c2=O)C1` [Compound 45, (R)-3-(4-(cyclopropylethynyl)-2-hydroxyphenyl)-6-((1-ethylpiperidin-3-yl)amino)-4-methyl-1 ,2,4-triazin-5(4H)-ketone], the IC50 is 345 nM.

Consider `CCN1CCC[C@@H](Nc2nnc(-c3ccc(C4CC4)cc3O)n(C)c2=O)C1` [Compound 11, (R)-3-(4-cyclopropyl-2-hydroxyphenyl)-6-((1-ethylpiperidin-3-yl)amino)-4-methyl-1,2,4-triaz in-5(4H)-ketone], for which the IC50 came out at 6.5 nM.

Regarding `[2H]C([2H])([2H])C([2H])([2H])N1CCC[C@@H](Nc2nnc(-c3ccc4c(c3O)CCC4=C(F)F)n(C)c2=O)C1` [Compound 15, (R)-3-(1-(difluoromethylene)-4-hydroxy-2,3-dihydro-1H-inden-5-yl)-6-((1-(ethyl-d5)piperidin-3-yl)amino)-4-methyl-1,2,4-triazin-5(4H)-ketone], the IC50 is 1.45 nM.

Consider `CC#Cc1ccc(-c2nnc(N[C@@H]3CCCN(CC)C3)c(=O)n2C)c(O)c1` [Compound 28, (R)-6-((1-ethylpiperidin-3-yl)Jamino)-3-(2-hydroxy-4-(prop-1-yn-1-yl)phenyl)-4-methyl-1,2,4-triazin-5(4H)-ketone], for which the half-inhibitory concentration (IC50) was determined as 29.6 nM.

For the compound `Cn1c(-c2ccc3c(c2O)CCC3=C(F)F)nnc(N[C@@H]2CCCN(C3CC(F)(F)C3)C2)c1=O` [Compound 14, (R)-6-((1-(3,3-Difluorocyclobutyl)piperidin-3-yl)amino)-3-(1-(difluoromethylene)-4-hydroxy-2,3-dihydro-1H-inden-5-yl)-4-methyl-1,2,4-triazin-5(4H)-ketone], the concentration for half-maximal inhibition (IC50) came to 32 nM.

For `C[C@H]1CC[C@@H](Nc2nnc(-c3ccc4sccc4c3O)n(C)c2=O)CN1C` [Compound 50, 6-(((3R,6S)-1,6-dimethylpiperidin-3-yl)amino)-3-(4-hydroxybenzo[b]thiophen-5-yl)-4-methyl-1,2,4-triazin-5 (4H)-ketone], the half-inhibitory concentration (IC50) worked out at 350 nM.

With `Cn1c(-c2ccc3ccccc3c2O)nnc(N[C@@H]2CCCC[C@H]2O)c1=O` [Compound 33, 6-(((1R,2R)-2-hydroxycyclohexyl)amino)-3-(1-hydroxynaphthalene-2-yl)-4-methyl-1,2,4-tria zine-5(4H)-ketone], the IC50 came to 12.5 nM.

Regarding `CN1CCC[C@@H](Nc2nnc(-c3ccc(C4CC4)cc3O)n(C)c2=O)C1` [Compound 39, (R)-3-(4-cyclopropyl-2-hydroxyphenyl)-4-methyl-6-((1-methylpiperidin-3-yl)amino)-1,2,4-tri azin-5(4H)-ketone], the IC50 came to 30 nM.

With `CCN1CCC[C@@H](Nc2nnc(-c3ccc4ccccc4c3O)n(C)c2=O)C1` [Compound 19, (R)-6-((1-ethylpiperidin-3-yl)amino)-3-(1-hydroxynaphthalen-2-yl)-4-methyl-1,2,4-triazin-5(4H)-ketone], the IC50 came to 19.1 nM.

Regarding `C[C@@H]1[C@H](Nc2nnc(-c3ccc4sccc4c3O)n(C)c2=O)CCCN1C` [Compound 49, 6-(((2R,3R)-1,2-dimethylpiperidin-3-yl)amino)-3-(4-hydroxybenzo[b]thiophen-5-yl)-4-methy 1-1,2,4-triazin-5(4H)-ketone], the half-maximal inhibitory concentration (IC50) was determined as 8.12 nM.

Consider `CN1CCC[C@@H](Nc2nnc(-c3ccc4ccccc4c3O)n(C)c2=O)C1` [Compound 18, (R)-3-(1-hydroxy-2-naphthyl)-4-methyl-6-((1-methylpiperidin-3-yl)amino)-1,2,4-triazin-5(4H )-ketone], for which the half-inhibitory concentration (IC50) stood at 25 nM.

On to `CN1CCC[C@@H](Nc2nnc(-c3ccc4sccc4c3O)n(C3CC3)c2=O)C1` [Compound 21, (R)-4-cyclopropyl-3-(4-hydroxybenzo[b]thiophen-5-yl)-6-((1-methylpiperidin-3-yl)amino)-1,2,4-triazin-5(4H)-ketone], for which the IC50 is 3.51 nM.

Turning to `CN1CCO[C@H](CNc2nnc(-c3ccc4sccc4c3O)n(C)c2=O)C1` [Compound 34, (R)-3-(4-hydroxybenzo[b]thiophen-5-yl)-4-methyl-6-(((4-methylmorpholino-2-yl)methyl)amino)-1,2,4-triazine-5(4H)-ketone], the IC50 was 75 nM.

Turning to `[2H]C([2H])([2H])C([2H])([2H])N1CCC[C@@H](Nc2nnc(-c3ccc4ccccc4c3O)n(C)c2=O)C1` [Compound 7, (R)-6-((1-(ethyl-d5)piperidin-3-yl)amino)-3-(1-hydroxynaphthalen-2-yl)-4-methyl-1,2,4-triazi n-5(4H)-ketone], the half-maximal inhibitory concentration (IC50) amounted to 22.1 nM.

As to `CN1CCC[C@@H](Nc2nnc(-c3ccc(C#CC4CC4)cc3O)n(C)c2=O)C1` [Compound 44, (R)-3-(4-(cyclopropylethynyl)-2-hydroxyphenyl)-4-methyl-6-((1-methylpiperidin-3-yl)amino) -1,2,4-triazin-5(4H)-ketone], the IC50 was determined as 80 nM.

For `CCN1CCC[C@@H](Nc2nnc(-c3ccc4sccc4c3O)n(C3CC3)c2=O)C1` [Compound 22, (R)-4-cyclopropyl-6-((1-ethylpiperidin-3-yl)amino)-3-(4-hydroxybenzo[b]thiophen-5-yl)-1,2,4-triazin-5(4H)-ketone], the IC50 came to 2.57 nM.

Consider `Cn1c(-c2ccc3ccccc3c2O)nnc(N[C@@H]2CCCN(CCO)C2)c1=O` [Compound 20, (R)-6-((1-(2-hydroxyethyl)piperidin-3-yl)amino]-3-(1-hydroxynaphthalen-2-yl)-4-methyl-1,2,4-triazin-5(4H)-ketone], for which the concentration for half-maximal inhibition (IC50) is 35.1 nM.

Consider `CC#Cc1ccc(-c2nnc(N[C@@H]3CCCC[C@H]3O)c(=O)n2C)c(O)c1` [Compound 32, 3-(2-hydroxy-4-(prop-1-yn-1-yl)phenyl)-6-(((1R,2R)-2-hydroxycyclohexyl)amino)-4-methyl-1,2,4-triazin-5(4H)-ketone.], for which the IC50 was determined as 8.53 nM.

Turning to `O=c1c(N[C@@H]2CCCN(CCO)C2)nnc(-c2ccc3sccc3c2O)n1C1CC1` [Compound 23, (R)-4-cyclopropyl-3-(4-hydroxybenzo[b]thiophen-5-yl)-6-((1-(2-hydroxyethyl)piperidin-3-yl)amino)-1,2,4-triazin-5(4H)-ketone], the IC50 is 8.95 nM.

Source of the values: patent EP4685142A1, “TRIAZINE COMPOUND AND USE THEREOF” (Chengdu Zenitar Biomedical Technology Co., Ltd., priority 2023, dated 2024).
